Patent publication US7754228B2, “Cytotoxic T-cell epitopes from Chlamydia” (Novartis Vaccines and Diagnostics, Srl, priority 2002, dated 2010)
Entries after “also recorded” stand apart in the source; their conditions may differ. Like-named read-outs stand apart in the source and are kept apart here.

Experiments:
[1] = test system: CD8^+ cells from immunised transgenic mice; assay: IFN-γ/CD8+ ELISpot assay after DNA immunisation of HLA-A2 transgenic mice; format: cell-based; conditions: for Mean IFN-γ^+ve per 10^6 CD8^+ve cells: after subtraction of HepB negative controls; for number of IFN-γ secreting CD8^+ (in words): spleen cells of DNA immunised transgenic mice
From the text: Full-length C.pneumoniae and C.trachomatis genes encoding the polypeptides which contain CTL epitopes were amplified by PCR using the primers in Table 4 and cloned into plasmid expression vector pCMVKASF2-120, from which the gp120 sequence had been previously excised by treatment with NheI and SalI restriction enzymes. The chlamydial sequences were thus downstream of the tPA signal sequence.
The plasmids were used for DNA immunisation of transgenic mice expressing the human HLA-A2 gene which express a chimeric class I molecule composed of the α1 and α2 domains of HLA-A2.1 and the α3 transmembrane and cytoplasmic domains of H-2K^b.
Mice were immunised at days 0, 21 and 35 by intramuscular injection of 50μg endotoxin-free recombinant plasmid DNA. One week after the third immunisation, the animals were sacrificed, spleens were removed and CD8+ cells were purified by means of CD8α(Ly-2) Microbeads and LS Separation Columns following the technical procedures described by Miltenyi Biotec™. These CD8^+ cells were tested by Elispot assay to detect cells which secrete IFN-γ in response to given peptides. The Elispot procedure was as follows: • 1. 96-well nitrocellulose plates are coated with 5 μg/ml anti-mouse IFN-γ in 100 μl carbonate buffer, pH 9.2. Cover plate with lid and incubate overnight (o.n.) at 4° C. • 2. Discard coating antibody. Rinse plates 3 times with PBS (200 μl per rinse). Shake excess liquid from plate and pat bottom of plate with dry absorbent paper. • 3. Add 200 μl blocking solution (PBS-BSA 1%) to each well to saturate remaining binding sites and incubate 2 hours at 37° C. (or o.n. at 4° C.). • 4. Discard blocking solution, wash plate 3 times with PBS (200 μl per rinse). Shake excess liquid from plate and pat bottom of plate with dry absorbent paper. • 5. Add 100 μl complete medium and incubate 10 minutes at room temperature. Discard liquid and pat bottom of plate with dry absorbent paper. • 6. Add cells (5×10^4 CD8^+ from immunised transgenic mice and 2×10^5 irradiated spleen cells from non-immunised transgenic mice) with complete medium supplemented with the tested peptide (5, 10 or 20 μg/ml) and IL-2 (10 units/ml). • 7. Incubate 20-24 hours in a humidified 37° C., 5% CO2 incubator. • 8. Take off medium, add 200 μl per wash of ice-cold distilled water and incubate on ice for 10 minutes. Then wash ten times in wash buffer (PBS-Tween 0.05%), 2001 per wash. Shake excess liquid from plate and pat bottom of plate with dry absorbent paper. • 9. To detect IFN-γ spots, add 1 μg/ml biotinylated anti mouse IFN-γ in 100 μl in Elispot dilution buffer (PBS-BSA 1%) and incubate 2 hours at 37° C. • 10. Wash plate 3 times with wash buffer (PBS-Tween 0.05%), 200 μl per wash and 3 times with PBS without Tween (200 μl). Shake excess liquid from plate and pat bottom of plate with dry absorbent paper. • 11. Add 100 μl 1:2000 dilution of alkaline phosphatase-coupled avidin in PBS-BSA 1% (Sigma). Incubate 1 hour at 37° C. • 12. Wash plate 3 times with wash buffer (PBS-Tween 0.05%), 2001il per wash and 3 times with PBS without Tween (200 μl). Shake excess liquid from plate and pat bottom of plate with dry absorbent paper. • 13. Spots of […] secreting cells are visualised by adding 50 μl of the ready-to-use substrate BCIP/NBT (Sigma) dissolved in water. The reaction is stopped after 45 minutes at 37° C. by several washes with distilled water.
Values are shown after subtraction of HepB negative controls.

[2] = test system: HLA A2; format: binding, human; conditions: for Mean 1 / Mean 2 / binding to HLA A2 (in words): RMA-S/A2 cells; for Mean 1: peptide and only anti-mouse secondary antibody; for Mean 1 / Mean 2: FACS mean; for Mean 2: peptide, anti-A2 Mab BB7.2 and secondary antibody; for binding to HLA A2 (in words): in vitro binding assay

With GLTEEIDYV [CH10] as the sequence, how does the “Mean IFN-γ^+ve per 10^6 CD8^+ve cells” value ([1]; peptide dose 5 μg/ml) read?
The value was 226 per 10^6 CD8^+ve cells.

And the “Mean IFN-γ^+ve per 10^6 CD8^+ve cells” value ([1]; peptide dose 10 μg/ml)?
The value was 233.3 per 10^6 CD8^+ve cells.

And the “Mean IFN-γ^+ve per 10^6 CD8^+ve cells” value ([1]; peptide dose 20 μg/ml)?
The value was 200 per 10^6 CD8^+ve cells.

What about the “number of IFN-γ secreting CD8^+ (in words)” value (“number” below) [1] of the same sequence?
Its value is “well above background levels”.

What about the “High - B” value [2] of the same sequence?
Its value is 139.

What about the “Δ Mean” value [2] of the same sequence?
Its value is 385.

What about the “Mean 1” value ([2]; 10 μM peptide) of the same sequence?
Its value is 202.

What about the “Mean 2” value ([2]; 10 μM peptide) of the same sequence?
Its value is 587.

And the “binding to HLA A2 (in words)” value [2]?
The value was “bind to HLA A2”.

Which “Mean IFN-γ^+ve per 10^6 CD8^+ve cells” value ([1]; peptide dose 5 μg/ml) does the source give for SITVFRWLV [CH58] here?
The value was 1046 per 10^6 CD8^+ve cells.

What about the “Mean IFN-γ^+ve per 10^6 CD8^+ve cells” value ([1]; peptide dose 10 μg/ml) of the same sequence?
The value was 980 per 10^6 CD8^+ve cells.

And the “Mean IFN-γ^+ve per 10^6 CD8^+ve cells” value ([1]; peptide dose 20 μg/ml)?
Its value is 986 per 10^6 CD8^+ve cells.

And the “number” value [1]?
The value was “well above background levels; also recorded: strongly positive”.

What about the “High - B” value [2] of the same sequence?
Its value is −15.

What about the “Δ Mean” value [2] of the same sequence?
The value was 145.

What about the “Mean 1” value ([2]; 10 μM peptide) of the same sequence?
Its value is 155.

What about the “Mean 2” value ([2]; 10 μM peptide) of the same sequence?
The value was 300.

And the “binding to HLA A2 (in words)” value [2]?
The value was “negative results”.

For YLLEEIYTV [CH6], which “Mean IFN-γ^+ve per 10^6 CD8^+ve cells” value ([1]; peptide dose 5 μg/ml) is on record?
The value was 106.8 per 10^6 CD8^+ve cells.

And the “Mean IFN-γ^+ve per 10^6 CD8^+ve cells” value ([1]; peptide dose 10 μg/ml)?
Its value is 486.8 per 10^6 CD8^+ve cells.

And the “Mean IFN-γ^+ve per 10^6 CD8^+ve cells” value ([1]; peptide dose 20 μg/ml)?
Its value is 266.6 per 10^6 CD8^+ve cells.

And the “number” value [1]?
The value was “well above background levels”.

What about the “High - B” value [2] of the same sequence?
The value was 130.

What about the “Δ Mean” value [2] of the same sequence?
Its value is 376.

And the “Mean 1” value ([2]; 10 μM peptide)?
Its value is 198.

What about the “Mean 2” value ([2]; 10 μM peptide) of the same sequence?
Its value is 574.

What about the “binding to HLA A2 (in words)” value [2] of the same sequence?
Its value is “bind to HLA A2”.

With YMDNNLFYV [CH7] as the sequence, how does the “Mean IFN-γ^+ve per 10^6 CD8^+ve cells” value ([1]; peptide dose 5 μg/ml) read?
Its value is 366 per 10^6 CD8^+ve cells.

What about the “Mean IFN-γ^+ve per 10^6 CD8^+ve cells” value ([1]; peptide dose 10 μg/ml) of the same sequence?
Its value is 400 per 10^6 CD8^+ve cells.

And the “Mean IFN-γ^+ve per 10^6 CD8^+ve cells” value ([1]; peptide dose 20 μg/ml)?
Its value is 433 per 10^6 CD8^+ve cells.

What about the “number” value [1] of the same sequence?
The value was “well above background levels”.

And the “High - B” value [2]?
Its value is 102.

And the “Δ Mean” value [2]?
Its value is 348.

What about the “Mean 1” value ([2]; 10 μM peptide) of the same sequence?
Its value is 203.

And the “Mean 2” value ([2]; 10 μM peptide)?
The value was 551.

What about the “binding to HLA A2 (in words)” value [2] of the same sequence?
Its value is “bind to HLA A2”.

And the “ΔMean at high concentrations of peptide (in words)” value ([2]; high peptide concentrations, non-homogeneous fluorescent signal, most likely non-specific effects)?
The value was “Very low ΔMean values”.

Which results are given for YVFDRILKV [CH13]?
Mean IFN-γ^+ve per 10^6 CD8^+ve cells ([1]; peptide dose 5 μg/ml): 466.8 per 10^6 CD8^+ve cells; Mean IFN-γ^+ve per 10^6 CD8^+ve cells ([1]; peptide dose 10 μg/ml): 700 per 10^6 CD8^+ve cells; Mean IFN-γ^+ve per 10^6 CD8^+ve cells ([1]; peptide dose 20 μg/ml): 540 per 10^6 CD8^+ve cells; number of IFN-γ secreting CD8^+ (in words) [1]: well above background levels; High - B [2]: 119; Δ Mean [2]: 365; Mean 1 ([2]; 100 μM peptide): 217; Mean 2 ([2]; 100 μM peptide): 582; binding to HLA A2 (in words) [2]: bind to HLA A2
